US20250270707A1, “NON-TRIAZOLE IMIDAZOLINE AND AMIDE COMPOUNDS AND METHODS FOR INHIBITING CORROSION IN INDUSTRIAL WATER TREATMENT” (CHEMTREAT, INC., priority 2023, published 2025)

Legend:
[1] = Corrosion rate by LPR sweep, copper coupons in synthetic water, 50° C., 1 ppm free chlorine after 0.5 hrs (Examples 1 and 2)
Protocol: (§1) One liter samples of synthetic water were each dosed with the compositions in Table 1.
(§2) The apparatus used for the corrosion testing was a Gamry Multiport Corrosion Cell and Gamry Reference 600+potentiostat with multiplexor. Copper coupons (CDA110) were added to the sample cells containing neutral water (pH 7.5), and the cells were dosed with 50 ppm of scale inhibitor (co-polymer and 2-phosphonobutane-1,2,4-yricarboxylic acid) and heated to 50° C. and maintained at this temperature throughout the testing. The cells were continuously stirred at a speed of 350 rpm. A cylindrical working electrode was submerged into the test solutions, and an LPR sweep (linear polarization resistance) was performed every hour for 18 hours. After the 0.5 hrs mark, 1 ppm of free chlorine was dosed into the corrosion cell.
(§3) One liter samples of the synthetic water described above with respect to Example 1 were each dosed with the compositions in Table 5 and processed under conditions similar to Example 1.

[2] = Cl2 demand in the corrosion cell test (Examples 1 and 2); format: physicochemical
Protocol: as §1, §2, §3

## CCCCCCCCCCCCN(CCC(=O)[O-])CCC(=O)O.[Na+] [SL, Sodium Lauriminodipropionate, reference compound]
[1]; 2 ppm
  CR Average (10-18 hrs): 0.067 mpy
  CR Peak: 0.932 mpy
[1]; 2 ppm, 0 hrs
  corrosion rate: 0.0368 mpy
[1]; 2 ppm, 1 hrs
  corrosion rate: 0.9317 mpy
[1]; 2 ppm, 2 hrs
  corrosion rate: 0.4889 mpy
[1]; 2 ppm, 3 hrs
  corrosion rate: 0.3498 mpy
[1]; 2 ppm, 4 hrs
  corrosion rate: 0.2185 mpy
[1]; 2 ppm, 5 hrs
  corrosion rate: 0.1644 mpy
[1]; 2 ppm, 6 hrs
  corrosion rate: 0.1286 mpy
[1]; 2 ppm, 7 hrs
  corrosion rate: 0.1128 mpy
[1]; 2 ppm, 8 hrs
  corrosion rate: 0.0992 mpy
[1]; 2 ppm, 9 hrs
  corrosion rate: 0.0910 mpy
[1]; 2 ppm, 10 hrs
  corrosion rate: 0.0854 mpy
[1]; 2 ppm, 11 hrs
  corrosion rate: 0.0779 mpy
[1]; 2 ppm, 12 hrs
  corrosion rate: 0.0757 mpy
[1]; 2 ppm, 13 hrs
  corrosion rate: 0.0685 mpy
[1]; 2 ppm, 14 hrs
  corrosion rate: 0.0643 mpy
[1]; 2 ppm, 15 hrs
  corrosion rate: 0.0613 mpy
[1]; 2 ppm, 16 hrs
  corrosion rate: 0.0580 mpy
[1]; 2 ppm, 17 hrs
  corrosion rate: 0.0543 mpy
[1]; 2 ppm, 18 hrs
  corrosion rate: 0.0536 mpy
[1]; Example 2, 2 ppm
  corrosion inhibition properties over the entire 18 hour period (in words): did not perform well
[2]; 2 ppm
  Cl2 Demand: 0.7 mg/L

## CCCCCCCCCCCC(=O)NCCN(CCOCC(=O)[O-])CC(=O)[O-].[Na+].[Na+] [DLADAA, Disodium Lauroamphodiacetate]
[1]; 2 ppm
  CR Average (10-18 hrs): 0.036 mpy
  CR Peak: 0.392 mpy
[1]; 2 ppm, 0 hrs
  corrosion rate: 0.0175 mpy
[1]; 2 ppm, 1 hrs
  corrosion rate: 0.3923 mpy
[1]; 2 ppm, 2 hrs
  corrosion rate: 0.3065 mpy
[1]; 2 ppm, 3 hrs
  corrosion rate: 0.2159 mpy
[1]; 2 ppm, 4 hrs
  corrosion rate: 0.1420 mpy
[1]; 2 ppm, 5 hrs
  corrosion rate: 0.1385 mpy
[1]; 2 ppm, 6 hrs
  corrosion rate: 0.1059 mpy
[1]; 2 ppm, 7 hrs
  corrosion rate: 0.0894 mpy
[1]; 2 ppm, 8 hrs
  corrosion rate: 0.0705 mpy
[1]; 2 ppm, 9 hrs
  corrosion rate: 0.0631 mpy
[1]; 2 ppm, 10 hrs
  corrosion rate: 0.0512 mpy
[1]; 2 ppm, 11 hrs
  corrosion rate: 0.0461 mpy
[1]; 2 ppm, 12 hrs
  corrosion rate: 0.0419 mpy
[1]; 2 ppm, 13 hrs
  corrosion rate: 0.0378 mpy
[1]; 2 ppm, 14 hrs
  corrosion rate: 0.0347 mpy
[1]; 2 ppm, 15 hrs
  corrosion rate: 0.0304 mpy
[1]; 2 ppm, 16 hrs
  corrosion rate: 0.0282 mpy
[1]; 2 ppm, 17 hrs
  corrosion rate: 0.0262 mpy
[1]; 2 ppm, 18 hrs
  corrosion rate: 0.0242 mpy
[1]; Example 2, 2 ppm
  corrosion inhibition properties over the entire 18 hour period (in words): good corrosion inhibition properties
[2]; 2 ppm
  Cl2 Demand: 0.7 mg/L

## Sodium Cocoamphoacetate [SCAA]
[1]; 2 ppm
  CR Average (10-18 hrs): 0.017 mpy
  CR Peak: 0.197 mpy
[1]; 2 ppm, 0 hrs
  corrosion rate: 0.0217 mpy
[1]; 2 ppm, 1 hrs
  corrosion rate: 0.1969 mpy
[1]; 2 ppm, 2 hrs
  corrosion rate: 0.0988 mpy
[1]; 2 ppm, 3 hrs
  corrosion rate: 0.0761 mpy
[1]; 2 ppm, 4 hrs
  corrosion rate: 0.0602 mpy
[1]; 2 ppm, 5 hrs
  corrosion rate: 0.0506 mpy
[1]; 2 ppm, 6 hrs
  corrosion rate: 0.0473 mpy
[1]; 2 ppm, 7 hrs
  corrosion rate: 0.0347 mpy
[1]; 2 ppm, 8 hrs
  corrosion rate: 0.0293 mpy
[1]; 2 ppm, 9 hrs
  corrosion rate: 0.0257 mpy
[1]; 2 ppm, 10 hrs
  corrosion rate: 0.0231 mpy
[1]; 2 ppm, 11 hrs
  corrosion rate: 0.0212 mpy
[1]; 2 ppm, 12 hrs
  corrosion rate: 0.0191 mpy
[1]; 2 ppm, 13 hrs
  corrosion rate: 0.0177 mpy
[1]; 2 ppm, 14 hrs
  corrosion rate: 0.0166 mpy
[1]; 2 ppm, 15 hrs
  corrosion rate: 0.0156 mpy
[1]; 2 ppm, 16 hrs
  corrosion rate: 0.0142 mpy
[1]; 2 ppm, 17 hrs
  corrosion rate: 0.0139 mpy
[1]; 2 ppm, 18 hrs
  corrosion rate: 0.0128 mpy
[1]; Example 2, 2 ppm
  corrosion inhibition properties over the entire 18 hour period (in words): good corrosion inhibition properties
[2]; 2 ppm
  Cl2 Demand: 1.0 mg/L

## Disodium Coco Imidazoline Dicarboxylate [DCIMDCC]
[1]; 2 ppm
  CR Average (10-18 hrs): 0.025 mpy
  CR Peak: 0.267 mpy
[1]; 2 ppm, 0 hrs
  corrosion rate: 0.0395 mpy
[1]; 2 ppm, 1 hrs
  corrosion rate: 0.2665 mpy
[1]; 2 ppm, 2 hrs
  corrosion rate: 0.1537 mpy
[1]; 2 ppm, 3 hrs
  corrosion rate: 0.0908 mpy
[1]; 2 ppm, 4 hrs
  corrosion rate: 0.0856 mpy
[1]; 2 ppm, 5 hrs
  corrosion rate: 0.0744 mpy
[1]; 2 ppm, 6 hrs
  corrosion rate: 0.0600 mpy
[1]; 2 ppm, 7 hrs
  corrosion rate: 0.0499 mpy
[1]; 2 ppm, 8 hrs
  corrosion rate: 0.0409 mpy
[1]; 2 ppm, 9 hrs
  corrosion rate: 0.0375 mpy
[1]; 2 ppm, 10 hrs
  corrosion rate: 0.0339 mpy
[1]; 2 ppm, 11 hrs
  corrosion rate: 0.0313 mpy
[1]; 2 ppm, 12 hrs
  corrosion rate: 0.0283 mpy
[1]; 2 ppm, 13 hrs
  corrosion rate: 0.0266 mpy
[1]; 2 ppm, 14 hrs
  corrosion rate: 0.0243 mpy
[1]; 2 ppm, 15 hrs
  corrosion rate: 0.0224 mpy
[1]; 2 ppm, 16 hrs
  corrosion rate: 0.0209 mpy
[1]; 2 ppm, 17 hrs
  corrosion rate: 0.0196 mpy
[1]; 2 ppm, 18 hrs
  corrosion rate: 0.0188 mpy
[2]; 2 ppm
  Cl2 Demand: 0.9 mg/L

## O=C([O-])C(O)[C@H](O)[C@@H](O)[C@H](O)[C@H](O)CO.[Na+] (some centres unmarked) [Glucoheptonate, NaGlucoheptonate, reference compound]
[1]; 5 ppm
  CR Average (10-18 hrs): 0.278 mpy
  CR Peak: 2.670 mpy
[1]; 5 ppm, 0 hrs
  corrosion rate: 0.074 mpy
[1]; 5 ppm, 1 hrs
  corrosion rate: 2.670 mpy
[1]; 5 ppm, 2 hrs
  corrosion rate: 2.004 mpy
[1]; 5 ppm, 3 hrs
  corrosion rate: 1.238 mpy
[1]; 5 ppm, 4 hrs
  corrosion rate: 0.784 mpy
[1]; 5 ppm, 5 hrs
  corrosion rate: 0.536 mpy
[1]; 5 ppm, 6 hrs
  corrosion rate: 0.504 mpy
[1]; 5 ppm, 7 hrs
  corrosion rate: 0.449 mpy
[1]; 5 ppm, 8 hrs
  corrosion rate: 0.357 mpy
[1]; 5 ppm, 9 hrs
  corrosion rate: 0.331 mpy
[1]; 5 ppm, 10 hrs
  corrosion rate: 0.311 mpy
[1]; 5 ppm, 11 hrs
  corrosion rate: 0.297 mpy
[1]; 5 ppm, 12 hrs
  corrosion rate: 0.288 mpy
[1]; 5 ppm, 13 hrs
  corrosion rate: 0.280 mpy
[1]; 5 ppm, 14 hrs
  corrosion rate: 0.274 mpy
[1]; 5 ppm, 15 hrs
  corrosion rate: 0.269 mpy
[1]; 5 ppm, 16 hrs
  corrosion rate: 0.267 mpy
[1]; 5 ppm, 17 hrs
  corrosion rate: 0.260 mpy
[1]; 5 ppm, 18 hrs
  corrosion rate: 0.257 mpy
[2]; 5 ppm
  Cl2 Demand: 0.5 mg/L

## CCCCCCCCCCCCCCCCCCN(C(=O)CC(C(=O)[O-])S(=O)(=O)[O-])C(CC(=O)[O-])C(=O)[O-].[Na+].[Na+].[Na+].[Na+] (centres unmarked) [TDSS, Tetrasodium Dicarboxyethyl Stearyl Sulfosuccinamate, reference compound]
[1]; 7 ppm
  CR Average (10-18 hrs): 0.141 mpy
  CR Peak: 0.243 mpy
[1]; 7 ppm, 0 hrs
  corrosion rate: 0.0149 mpy
[1]; 7 ppm, 1 hrs
  corrosion rate: 0.1875 mpy
[1]; 7 ppm, 2 hrs
  corrosion rate: 0.2432 mpy
[1]; 7 ppm, 3 hrs
  corrosion rate: 0.2313 mpy
[1]; 7 ppm, 4 hrs
  corrosion rate: 0.1839 mpy
[1]; 7 ppm, 5 hrs
  corrosion rate: 0.1611 mpy
[1]; 7 ppm, 6 hrs
  corrosion rate: 0.1349 mpy
[1]; 7 ppm, 7 hrs
  corrosion rate: 0.1387 mpy
[1]; 7 ppm, 8 hrs
  corrosion rate: 0.1304 mpy
[1]; 7 ppm, 9 hrs
  corrosion rate: 0.1291 mpy
[1]; 7 ppm, 10 hrs
  corrosion rate: 0.1381 mpy
[1]; 7 ppm, 11 hrs
  corrosion rate: 0.1431 mpy
[1]; 7 ppm, 12 hrs
  corrosion rate: 0.1363 mpy
[1]; 7 ppm, 13 hrs
  corrosion rate: 0.1485 mpy
[1]; 7 ppm, 14 hrs
  corrosion rate: 0.1371 mpy
[1]; 7 ppm, 15 hrs
  corrosion rate: 0.1428 mpy
[1]; 7 ppm, 16 hrs
  corrosion rate: 0.1422 mpy
[1]; 7 ppm, 17 hrs
  corrosion rate: 0.1375 mpy
[1]; 7 ppm, 18 hrs
  corrosion rate: 0.1422 mpy
[2]; 7 ppm
  Cl2 Demand: 0.8 mg/L

## Disodium Cocoamphodiacetate [DCADAA]
[1]; 2 ppm
  CR Average (10-18 hrs): 0.036 mpy
  CR Peak: 0.180 mpy
[1]; 2 ppm, 0 hrs
  corrosion rate: 0.0198 mpy
[1]; 2 ppm, 1 hrs
  corrosion rate: 0.1804 mpy
[1]; 2 ppm, 2 hrs
  corrosion rate: 0.1576 mpy
[1]; 2 ppm, 3 hrs
  corrosion rate: 0.1608 mpy
[1]; 2 ppm, 4 hrs
  corrosion rate: 0.1140 mpy
[1]; 2 ppm, 5 hrs
  corrosion rate: 0.1360 mpy
[1]; 2 ppm, 6 hrs
  corrosion rate: 0.0910 mpy
[1]; 2 ppm, 7 hrs
  corrosion rate: 0.0780 mpy
[1]; 2 ppm, 8 hrs
  corrosion rate: 0.0629 mpy
[1]; 2 ppm, 9 hrs
  corrosion rate: 0.0545 mpy
[1]; 2 ppm, 10 hrs
  corrosion rate: 0.0516 mpy
[1]; 2 ppm, 11 hrs
  corrosion rate: 0.0459 mpy
[1]; 2 ppm, 12 hrs
  corrosion rate: 0.0419 mpy
[1]; 2 ppm, 13 hrs
  corrosion rate: 0.0375 mpy
[1]; 2 ppm, 14 hrs
  corrosion rate: 0.0349 mpy
[1]; 2 ppm, 15 hrs
  corrosion rate: 0.0316 mpy
[1]; 2 ppm, 16 hrs
  corrosion rate: 0.0290 mpy
[1]; 2 ppm, 17 hrs
  corrosion rate: 0.0246 mpy
[1]; 2 ppm, 18 hrs
  corrosion rate: 0.0252 mpy
[1]; Example 2, 2 ppm
  corrosion inhibition properties over the entire 18 hour period (in words): good corrosion inhibition properties
[2]; 2 ppm
  Cl2 Demand: 0.6 mg/L

## CCCCCCCC(=O)NCCN(CCOCCC(=O)[O-])CCC(=O)[O-].[Na+].[Na+] [DCADPP, Disodium Capryloamphodipropionate]
[1]; 2 ppm
  CR Average (10-18 hrs): 0.304 mpy
  CR Peak: 2.169 mpy
[1]; 2 ppm, 0 hrs
  corrosion rate: 0.0293 mpy
[1]; 2 ppm, 1 hrs
  corrosion rate: 2.1690 mpy
[1]; 2 ppm, 2 hrs
  corrosion rate: 1.4770 mpy
[1]; 2 ppm, 3 hrs
  corrosion rate: 1.3090 mpy
[1]; 2 ppm, 4 hrs
  corrosion rate: 0.6705 mpy
[1]; 2 ppm, 5 hrs
  corrosion rate: 0.6007 mpy
[1]; 2 ppm, 6 hrs
  corrosion rate: 0.6353 mpy
[1]; 2 ppm, 7 hrs
  corrosion rate: 0.5403 mpy
[1]; 2 ppm, 8 hrs
  corrosion rate: 0.4352 mpy
[1]; 2 ppm, 9 hrs
  corrosion rate: 0.3962 mpy
[1]; 2 ppm, 10 hrs
  corrosion rate: 0.3671 mpy
[1]; 2 ppm, 11 hrs
  corrosion rate: 0.3426 mpy
[1]; 2 ppm, 12 hrs
  corrosion rate: 0.3293 mpy
[1]; 2 ppm, 13 hrs
  corrosion rate: 0.3130 mpy
[1]; 2 ppm, 14 hrs
  corrosion rate: 0.2994 mpy
[1]; 2 ppm, 15 hrs
  corrosion rate: 0.2826 mpy
[1]; 2 ppm, 16 hrs
  corrosion rate: 0.2749 mpy
[1]; 2 ppm, 17 hrs
  corrosion rate: 0.2691 mpy
[1]; 2 ppm, 18 hrs
  corrosion rate: 0.2604 mpy
[1]; Example 2, 2 ppm
  corrosion inhibition properties over the entire 18 hour period (in words): inferior corrosion inhibition properties
  corrosion resistance when free chlorine was added (in words): substantial deterioration in corrosion resistance
[2]; 2 ppm
  Cl2 Demand: 1.0 mg/L
